The target in one assay is Mcl-1 protein (Homo sapiens, UniProt Q07820). The assay is described as follows: Inhibition of Mcl-1 by the fluorescence polarisation technique. In kind it is binding. Conditions: fluorescence polarisation test; Fluorescein labelled ligand 1 nM, Mcl-1 protein 5 nM, ~2 hours at r.t.; read-out: IC50 (M) Mcl-1 FP. The method, then: The relative binding potency of each compound was determined via Fluorescence Polarisation (FP). The method utilised a Fluorescein labelled ligand (Fluorescein-βAla-Ahx-A-REIGAQLRRMADDLNAQY-OH; mw 2,765) which binds to the Mcl-1 protein (such that Mcl-1 corresponds to the UniProtKB® primary accession number: Q07820) leading to an increased anisotropy measured in milli-polarisation (mP) units using a reader. The addition of a compound which binds competitively to the same site as the ligand will result in a greater proportion of unbound ligand in the system indicated by a decrease in mP units.
An 11 point serial dilution of each compound was prepared in DMSO and 2 μl transferred into flat bottomed, low binding, 384-well plate (final DMSO concentration 5%). 38 μl of buffer (10 mM 4-(2-hydroxyethyl)-1-piperazineethanesulfonic acid [HEPES], 150 mM NaCl, 0.05% Tween 20, pH 7.4), containing the Fluorescein labelled ligand (final concentration 1 nM) and Mcl-1 protein (final concentration 5 nM) was then added.
Assay plates were incubated ˜2 hours at r.t. before FP was measured on a Biomek Synergy2 reader (Ex. 528 nm, Em. 640 nm, Cut off 510 nm) and mP units calculated. The binding of increasing doses of test compound was expressed as a percentage reduction in mP compared to a window established between ‘5% DMSO only’ and ‘100% inhibition’ controls. 11-point dose response curves were plotted with XL-Fit software using a 4-Parameter Logistic Model (Sigmoidal Dose-Response Model) and the inhibitory concentrations that gave a 50% reduction in mP (IC50) were determined.
On the technique in general: In fluorescence polarisation assays a small probe gives low polarisation when free and higher when bound to something large.

For a further assay, the system named is H929 cells. Nature of the assay: In vitro cytotoxicity (MTT) on H929 multiple myeloma tumour line. In kind it is cell-based. Conditions: Microculture Tetrazolium Assay. Here is the method: The cytotoxicity studies were carried out on the H929 multiple myeloma tumour line.
The cells are distributed onto microplates and exposed to the test compounds for 48 hours.
The cell viability is then quantified by a colorimetric assay, the Microculture Tetrazolium Assay (Cancer Res., 1987, 47, 939-942).

Where [1] appears, read: Homo sapiens, NCI-H929, exposed 48 hours.

These results are taken from patent US10322131B2, “Hydroxyacid derivatives, a process for their preparation and pharmaceutical compositions containing them” (LES LABORATOIRES SERVIER, priority 2015, dated 2019).

Chain of Mcl-1 protein (Q07820 whole entry): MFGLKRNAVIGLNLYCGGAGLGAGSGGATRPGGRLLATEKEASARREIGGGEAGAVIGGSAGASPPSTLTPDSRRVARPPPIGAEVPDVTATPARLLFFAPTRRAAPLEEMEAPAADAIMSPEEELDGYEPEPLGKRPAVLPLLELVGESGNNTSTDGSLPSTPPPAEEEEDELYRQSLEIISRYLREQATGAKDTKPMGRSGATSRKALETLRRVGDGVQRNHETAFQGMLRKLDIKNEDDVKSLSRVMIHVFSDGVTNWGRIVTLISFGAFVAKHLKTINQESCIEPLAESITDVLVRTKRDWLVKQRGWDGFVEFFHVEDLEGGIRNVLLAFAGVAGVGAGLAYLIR

As to `Cc1c(-c2c(-c3ccc(F)cc3)sc3ncnc(OC(Cc4ccccc4OCc4ccnc(-c5ccc(CO)cc5)n4)C(=O)O)c23)ccc(OCCN2CCN(C)CC2)c1Cl` [Example 4, (2R)-2-{[(5Sa)-5-{3-chloro-2-methyl-4-[2-(4-methylpiperazin-1-yl)ethoxy]phenyl}-6-(4-fluorophenyl)thieno[2,3-d]pyrimidin-4-yl]oxy}-3-[2-({2-[4-hydroxymethyl)phenyl]pyrimidin-4-yl}methoxy)phenyl]propanoic acid], the IC50 (usually the concentration that inhibits the measured activity by half) on Mcl-1 protein came out at 4.9e-09 M; in the assay on H929 cells (setting [1]), 3.64 nM.

On to `Cc1c(-c2c(-c3ccc(F)cc3)sc3ncnc(OC(Cc4ccccc4OCc4ccnc(-c5ccccc5OCC5COC(C)(C)O5)n4)C(=O)O)c23)ccc(OCCN2CCN(C)CC2)c1Cl` [Example 5, (2R)-2-{[(5Sa)-5-{3-chloro-2-methyl-4-[2-(4-methylpiperazin-1-yl)ethoxyl]phenyl}-6-(4-fluorophenyl)thieno[2,3-d]pyrimidin-4-yl]oxy}-3-{2-[(2-{2-[(2,2-dimethyl-1,3-dioxolan-4-yl)methoxyl]phenyl}pyrimidin-4-yl)methoxy]phenyl}propanoic acid], for which the IC50 was 3.7e-09 M at Mcl-1 protein and 1.65 nM in the assay on H929 cells (setting [1]).

Take `COCCOCCOc1ccccc1-c1nccc(COc2ccccc2CC(Oc2ncnc3sc(-c4ccc(F)cc4)c(-c4ccc(OCCN5CCN(C)CC5)c(Cl)c4C)c23)C(=O)O)n1` [Example 6, (2R)-2-{[(5Sa)-5-{3-chloro-2-methyl-4-[2-(4-methylpiperazin-1-yl)ethoxy]phenyl}-6-(4-fluoropnhenyl)thieno[2,3-d]pyrimidin-4-yl]oxy}-3-{2-[(2-{2-[2-(2-methoxyethoxy)ethoxy]phenyl}pyrimidin-4-yl)methoxy]phenyl}propanoic acid]: the IC50 on Mcl-1 protein was 1.57e-08 M; with H929 cells (setting [1]), 3.25 nM.

As for `COCCOCCOCCOc1ccccc1-c1nccc(COc2ccccc2CC(Oc2ncnc3sc(-c4ccc(F)cc4)c(-c4ccc(OCCN5CCN(C)CC5)c(Cl)c4C)c23)C(=O)O)n1` [Example 7, (2R)-2-{[(5Sa)-5-{3-chloro-2-methyl-4-[2-(4-methylpiperazin-1-yl)ethoxy]phenyl}-6-(4-flurophenyl)thieno[2,3-d]pyrimidin-4-yl]oxy}-3-(2-{[2-(2-{2-[2-(2-methoxyethoxy)ethoxy]ethoxy}phenyl)pyrimidin-4-yl]methoxy}phenyl)propanoic acid], the results for the IC50 at Mcl-1 protein and in the assay on H929 cells (exposed 48 hours) were 3.75e-09 M and 4.45 nM, respectively.

Take `COCc1ccccc1-c1nccc(COc2ccccc2C[C@@H](Oc2ncnc3sc(-c4ccc(F)cc4)c(-c4ccc(OCCN5CCN(C)CC5)c(Cl)c4C)c23)C(=O)O)n1` [Example 8, (2R)-2-{[(5Sa)-5-{3-chloro-2-methyl-4-[2-(4-methylpiperazin-1-yl)ethoxy]phenyl}-6-(4-flurophenyl)thieno[2,3-d]pyrimidin-4-yl]oxy}-3-[2-({2-[2-(methoxymethyl)phenyl]pyrimidin-4-yl}methoxy)phenyl]propanoic acid]: the IC50 on Mcl-1 protein amounted to 7.35e-09 M; in the assay with H929 cells (exposed 48 hours), 2.07 nM.

Consider `COCCOCc1ccccc1-c1nccc(COc2ccccc2CC(Oc2ncnc3sc(-c4ccc(F)cc4)c(-c4ccc(OCCN5CCN(C)CC5)c(Cl)c4C)c23)C(=O)O)n1` [Example 9, (2R)-2-{[(5Sa)-5-{3-chloro-2-methyl-4-[2-(4-methylpiperazin-1-yl)ethoxy]phenyl}-6-(4-fluorophenyl)thieno[2,3-d]pyrimidin-4-yl]oxy}-3-{2-[(2-{2-[(2-methoxyethoxy)methyl]phenyl}pyrimidin-4-yl)methoxy]phenyl}propanoic acid], for which the IC50 on Mcl-1 protein worked out at 8.15e-09 M; with H929 cells (setting [1]), 1.4 nM.

Turning to `Cc1c(-c2c(-c3ccc(F)cc3)sc3ncnc(OC(Cc4ccccc4OCc4ccnc(-c5ccccc5COCCO)n4)C(=O)O)c23)ccc(OCCN2CCN(C)CC2)c1Cl` [Example 10, (2R)-2-{[(5Sa)-5-{3-chloro-2-methyl-4-[2-(4-methylpiperazin-1-yl)ethoxy]phenyl}-6-(4-fluorophenyl)thieno[2,3-d]pyrimidin-4-yl]oxy}-3-{2-[(2-{2-[(2-hydroxyethoxy)methyl]phenyl}pyrimidin-4-yl)methoxy]phenyl}propanoic acid], the IC50 on Mcl-1 protein was 1.09e-08 M; in the assay with H929 cells (setting [1]), 2.79 nM.

`Cc1c(-c2c(-c3ccc(F)cc3)sc3ncnc(OC(Cc4ccccc4OCc4ccnc(-c5ccccc5COCC5COC(C)(C)O5)n4)C(=O)O)c23)ccc(OCCN2CCN(C)CC2)c1Cl` [Example 11, (2R)-2-{[(5Sa)-5-{3-chloro-2-methyl-4-[2-(4-methylpiperazin-1-yl)ethoxy]phenyl}-6-(4-fluorophenyl)thieno[2,3-d]pyrimidin-4-yl]oxy}-3-(2-{[2-(2-{[(2,2-dimethyl-1,3-dioxolan-4-yl)methoxy]methyl}phenyl)pyrimidin-4-yl]methoxy}phenyl)propanoic acid]: the IC50 turned out to be 4.05e-09 M at Mcl-1 protein and 1.99 nM in the assay with H929 cells (setting [1]).

For `Cc1c(-c2c(-c3ccc(F)cc3)sc3ncnc(OC(Cc4ccccc4OCc4ccnc(-c5cccc(COCCO)c5)n4)C(=O)O)c23)ccc(OCCN2CCN(C)CC2)c1Cl` [Example 12, (2R)-2-{[(5Sa)-5-{3-chloro-2-methyl-4-[2-(4-methylpiperazin-1-yl(ethoxy]phenyl}-6-(4-fluorophenyl)thieno[2,3-d]pyrimidin-4-yl]oxy}-3-{2-[(2-{3-[(2-hydroxyethoxy)methyl]phenyl}pyrimidin-4-yl)methoxy]phenyl}propanoic acid], the IC50 amounted to 4.25e-09 M on Mcl-1 protein and 3.82 nM with H929 cells (setting [1]).

Take `COCC(COC)Oc1cccc(-c2nccc(COc3ccccc3CC(Oc3ncnc4sc(-c5ccc(F)cc5)c(-c5ccc(OCCN6CCN(C)CC6)c(Cl)c5C)c34)C(=O)O)n2)c1` [Example 13, (2R)-2-{[(5Sa)-5-{3-chloro-2-methyl-4-[2-(4-methylpiperazin-1-yl)ethoxy]phenyl}-6-(4fluorophenyl)thieno[2,3-d]pyrimidin-4-yl]oxy}-3-{2-[(2-{3-[(1,3-dimethoxypropan-2-yl)oxy]phenyl}pyrimidin-4-yl)methoxy]phenyl}propanoic acid]: the values for the IC50 at Mcl-1 protein and with H929 cells (setting [1]) were 5.1e-09 M and 3.59 nM, respectively.

Take `COCC(COC)Oc1ccc(-c2nccc(COc3ccccc3CC(Oc3ncnc4sc(-c5ccc(F)cc5)c(-c5ccc(OCCN6CCN(C)CC6)c(Cl)c5C)c34)C(=O)O)n2)cc1` [Example 14, (2R)-2-{[(5Sa)-5-{3-chloro-2-methyl-4-[2-(4-methylpiperazin-1-yl)ethoxy]phenyl}-6-(4-fluorophenyl)thieno[2,3-d]pyrimidin-4-yl]oxy}-3-{(2-[(2-{4-[(1,3-dimethoxypropan-2-yl)oxy]phenyl}pyrimidin-4-yl)methoxy]phenyl}propanoic acid]: the IC50 is 6.15e-09 M at Mcl-1 protein and 3.37 nM in the assay on H929 cells (setting [1]).

As to `Cc1c(-c2c(-c3ccc(F)cc3)sc3ncnc(OC(Cc4ccccc4OCc4ccnc(-c5ccc(OCC(O)CO)cc5)n4)C(=O)O)c23)ccc(OCCN2CCN(C)CC2)c1Cl` [Example 15, (2R)-2-{[(5Sa)-5-{3-chloro-2-methyl-4-[2-(4-methylpiperazin-1-yl)ethoxy]phenyl}-6-(4-fluorophehenyl)thieno[2,3-d]pyrimidin-4-yl]oxy}-3-[2-({2-[4-(2,3-dihydroxypropoxy)phenyl]pyrimidin-4-yl}methoxy)phenyl]propanoic acid], the figures for the IC50 on Mcl-1 protein and in the assay with H929 cells (setting [1]) were 2.75e-09 M and 3.59 nM, respectively.

As to `COC1OC(COc2cccc(-c3nccc(COc4ccccc4CC(Oc4ncnc5sc(-c6ccc(F)cc6)c(-c6ccc(OCCN7CCN(C)CC7)c(Cl)c6C)c45)C(=O)O)n3)c2)C(O)C(O)C1O` [Example 16, methyl 6-O-{3-[4-({2-[(2R)-2-carboxy-2-{[(5Sa)-5-{3-chloro-2-methyl-4-[2-(4-methylpiperazin-1-yl)ethoxy]phenyl}-6-(4-flurophenyl)thieno[2,3-d]pyrimidin-4-yl]oxy}ethyl]phenoxy}methyl)pyrimidin-2-yl]phenyl}-α-D-mannopyranoside], the IC50 on Mcl-1 protein is 7.2e-09 M; in the assay with H929 cells (exposed 48 hours) it was 37.1 nM.

Regarding `COC1OC(COc2cccc(-c3nccc(COc4ccccc4CC(Oc4ncnc5sc(-c6ccc(F)cc6)c(-c6ccc(OCCN7CCN(C)CC7)c(Cl)c6C)c45)C(=O)O)n3)c2)C(OC)C(OC)C1OC` [Example 17, methyl 6-O-{3-[4-({2-[(2R)-2-carboxy-2-{[(5Sa)-5-{3-chloro-2-methyl-4-[2-(4methylpiperazin-1-yl)ethoxy]phenyl}-6-(4-fluorophenyl)thieno[2,3-d]pyrimidin-4-yl]oxy}ethyl]phenoxy}methyl)pyrimidin-2-yl]phenyl}-2,3,4-tri-O-methyl-α-D-mannopyranoside], the IC50 came out at 4.8e-09 M at Mcl-1 protein and 3.03 nM with H929 cells (setting [1]).
